Source: article PMC11992225, “Antibacterial compounds against non-growing and intracellular bacteria” (npj Antimicrobials and Resistance, 2025)
≈ marks a conversion by molar mass, not a printed value. Where two headings read alike, the source gives them in different places.

Tests used:
E. coli CFT073 (UPEC) = experiment: MIC, standard microdilution assay, growing UPEC; format: cell-based, Escherichia coli; conditions: for MIC (μM) CA-MHB +PAβN: CA-MHB with 10 μg/ml efflux pump inhibitor PaβN
Method in brief: (§1)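 Each strain was exposed to serially diluted compound in broth, in triplicate. The media were TSB for Shigella; CA-MHB at pH 7.4 (HEPES 40 mM) for S. aureus, P. aeruginosa and UPEC; and, for UPEC only, low-pH LPM (pH 5.5, 30 mM MES).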

S. flexneri 5a M90T = experiment: MIC in tryptic soy broth, S. flexneri; format: cell-based, Shigella flexneri; conditions: for MIC: Shigella flexneri, 5AM90T, read-out: MIC (μM) TSB; for MIC (μM) TSB: S. flexneri, extracellular bacteria in TSB
Method in brief: as §1

S. aureus DSM2569 = experiment: MIC, standard microdilution assay, growing S. aureus; format: cell-based, Staphylococcus aureus
Method in brief: as §1

P. aeruginosa DSM1117 = experiment: MIC, standard microdilution assay, growing P. aeruginosa; format: cell-based, Pseudomonas aeruginosa
Method in brief: as §1

[1] = system: non-growing P. aeruginosa DSM1117; experiment: Dilution-regrowth assay (OD600, start-growth-time) on stationary-phase P. aeruginosa; format: cell-based, Pseudomonas aeruginosa; conditions: P. aeruginosa; for Regrowth, OD600 at 6h or 8h after dilution into drug-free medium: average
Method: To determine the spectrum of activity of the compounds that were effective against non-growing UPEC, we further assessed their efficacy against the well-characterized Gram-negative and Gram-positive reference strains P. aeruginosa DSM1117 and S. aureus DSM2569, respectively. The cultures were grown and treated for 24 h in 1:4 CA-MHB (pH 7.4). […].
For better characterization of the compounds causing the strongest regrowth delay, we performed the regrowth step of the dilution-regrowth experiments on a plate reader, measuring the OD600 at 20-min intervals for over 20 h instead of using an endpoint measurement. This approach allowed us to capture the time when cultures reached a threshold optical density (start-growth-time, SGT[15]).
Overnight cultures of UPEC, P. aeruginosa and S. aureus were grown in test tubes containing 3 ml of LB broth (~16 h), then diluted 1:100 into either 1:4 diluted CA-MHB medium buffered with 40 mM HEPES (pH 7.4) or, in case of UPEC, into LPM medium[25] supplemented with 49 µM MgCl2 and buffered with 30 mM MES (pH 5.5). The cultures were incubated for 24 h in non-baffled Erlenmeyer flasks at 37 °C with shaking at 200 rpm.
For P. aeruginosa and S. aureus, dose–response analysis was conducted in 96-well plates with a 200 μl assay volume, following the procedure used for screening assay validation experiments. Aliquots of the 39 compounds active against non-growing UPEC were obtained from SelleckChem and MedChem Express. Stock solutions were prepared and stored according to the manufacturers’ instructions, then diluted in 10% DMSO before use. Cultures were incubated for 24 h in 1:4 diluted CA-MHB medium under the same conditions used for UPEC cultivation. In preliminary experiments, each compound was tested at a concentration of 20 μM in the dilution-regrowth assay with 4 technical replicates. Regrowth was monitored using a microplate reader at 37 °C with continuous shaking, and OD600 was recorded every 20 min. The time at which OD600 exceeded the threshold of 0.12 was recorded as the Start_Growth-Time.
The statistical analysis of all data, as well as EC50 and IC50 determination, was conducted using GraphPad Prism 10.2.3. Statistical significance of the drug effects was assessed using a one-way ANOVA followed by Dunnett’s test, comparing each treatment to the drug-free control. Statistical significance of the differences in chemical characteristics between the hit compounds and the Prestwick library was assessed using a Mann–Whitney test. Statistical significance was set at P ≤ 0.05. A five-parameter logistic equation was used for asymmetric sigmoidal curve fitting and for EC50 and IC50 determination. The Venn diagram in Fig. 1F was prepared using BioVenn web application. Characteristics of the chemical and physical properties of Prestwick library compounds were obtained from Supplementary Table S1 from reference. Characteristics of the hit compounds not included in the Prestwick library were retrieved from the PubChem database.

[2] = Escherichia coli, E. coli, pH 7.4, CA-MHB, read-out: MIC (μM) CA-MHB
[3] = Staphylococcus aureus, DSM2569, S. aureus, CA-MHB pH 7.4, read-out: MIC (μM) CA-MHB
[4] = E. coli, LPM pH 5.5, read-out: MIC
[5] = E. coli, pH 7.4, CA-MHB, read-out: MIC (μM) CA-MHB
[6] = P. aeruginosa, CA-MHB pH 7.4, read-out: MIC (μM) CA-MHB
[7] = S. aureus, CA-MHB pH 7.4, read-out: MIC (μM) CA-MHB
[8] = Escherichia coli, pH 7.4, read-out: MIC (μM) 1:4 CA-MHB
[9] = Escherichia coli, pH 7.4, read-out: MIC (μM) CA-MHB
[10] = Pseudomonas aeruginosa, DSM1117, pH 7.4, read-out: MIC (μM) CA-MHB
[11] = Staphylococcus aureus, DSM2569, pH 7.4, read-out: MIC (μM) CA-MHB
[12] = Escherichia coli, E. coli, LPM pH 5.5, read-out: MIC
[13] = Pseudomonas aeruginosa, DSM1117, P. aeruginosa, CA-MHB pH 7.4, read-out: MIC (μM) CA-MHB

CCCCC(CC)CNC(=N)NC(=N)NCCCCCCNC(=N)NC(=N)NCC(CC)CCCC (stereo not drawn) [Alexidine]
MIC (E. coli CFT073 (UPEC); [2]): 2 µM (≈ 1.02 µg/mL) | MIC (S. flexneri 5a M90T): 1 µM (≈ 0.509 µg/mL) | MIC (S. aureus DSM2569; [3]): 1 µM (≈ 0.509 µg/mL)

CO[C@H]1/C=C/O[C@@]2(C)Oc3c(C)c(O)c4c(O)c(c(/C=N/N=C/N5CCCCC5)c(O)c4c3C2=O)NC(=O)/C(C)=C\C=C\[C@H](C)[C@H](O)[C@@H](C)[C@@H](O)[C@@H](C)[C@H](OC(C)=O)[C@@H]1C [FCE-22250]
MIC (E. coli CFT073 (UPEC); [4]): 2 µM (≈ 1.67 µg/mL) | MIC (E. coli CFT073 (UPEC); E. coli, pH 7.4, 1:4 diluted CA-MHB, read-out: MIC (μM) 1:4 CA-MHB): 10 µM (≈ 8.35 µg/mL) | MIC (μM) CA-MHB +PAβN (E. coli CFT073 (UPEC); E. coli, pH 7.4): 4 µM (≈ 3.34 µg/mL) | MIC (E. coli CFT073 (UPEC); [5]): 8 µM (≈ 6.68 µg/mL) | MIC (P. aeruginosa DSM1117; P. aeruginosa, 1:4 diluted CA-MHB pH 7.4, read-out: MIC (μM) 1:4 CA-MHB): 10 µM (≈ 8.35 µg/mL) | MIC (P. aeruginosa DSM1117; [6]): >160 µM | MIC (μM) TSB (S. flexneri 5a M90T): 16 µM (≈ 13.4 µg/mL) | MIC (S. aureus DSM2569; [7]): 0.0125 µM (≈ 0.0104 µg/mL)

N#Cc1c(N2C[C@@H]3NCCO[C@H]3C2)c(F)cc2c(=O)c(C(=O)O)cn(C3CC3)c12 [Finafloxacin]
MIC (E. coli CFT073 (UPEC); [4]): 0.007812 µM (≈ 0.00311 µg/mL) | MIC (E. coli CFT073 (UPEC); [5]): 0.25 µM (≈ 0.0996 µg/mL) | MIC (P. aeruginosa DSM1117; [6]): 20 µM (≈ 7.97 µg/mL) | MIC (μM) TSB (S. flexneri 5a M90T): 0.125 µM (≈ 0.0498 µg/mL) | MIC (S. aureus DSM2569; [7]): 0.5 µM (≈ 0.199 µg/mL)

Bleomycin
MIC (E. coli CFT073 (UPEC); [4]): 0.5 µM | MIC (E. coli CFT073 (UPEC); [5]): 0.5 µM | MIC (P. aeruginosa DSM1117; [6]): >100 µM | MIC (μM) TSB (S. flexneri 5a M90T): 0.25 µM | MIC (μM) 1:4 CA-MHB (S. aureus DSM2569; S. aureus, 1:4 diluted CA-MHB pH 7.4): 3.125 µM | MIC (S. aureus DSM2569; [7]): 12.5 µM

Cn1c(COP(=O)(NCCBr)NCCBr)cnc1[N+](=O)[O-] [Evofosfamide]
MIC (μM) CA-MHB +PAβN (E. coli CFT073 (UPEC); E. coli, pH 7.4): >160 µM | MIC (E. coli CFT073 (UPEC); Escherichia coli, pH 5.5): 160 µM (≈ 71.8 µg/mL) | MIC (E. coli CFT073 (UPEC); [8]): > 160 µM | MIC (E. coli CFT073 (UPEC); [9]): > 160 µM | MIC (P. aeruginosa DSM1117; [10]): > 160 µM | MIC (S. flexneri 5a M90T): 32 µM (≈ 14.4 µg/mL) | MIC (μM) CA-MHB +PAβN (S. aureus DSM2569; S. aureus, CA-MHB with 10 μg/ml PaβN): 80 µM (≈ 35.9 µg/mL) | MIC (S. aureus DSM2569; Staphylococcus aureus, DSM2569, pH 7.4, read-out: MIC (μM) 1:4 CA-MHB): 80 µM (≈ 35.9 µg/mL) | MIC (S. aureus DSM2569; [11]): 160 µM (≈ 71.8 µg/mL)

Plicamycin
MIC (E. coli CFT073 (UPEC); [4]): 32 µM | MIC (E. coli CFT073 (UPEC); [5]): 160 µM | MIC (μM) TSB (S. flexneri 5a M90T): >128 µM | MIC (S. aureus DSM2569; [7]): 0.25 µM

CO[C@H]1/C=C/O[C@@]2(C)Oc3c(C)c(O)c4c(O)c(c(/C=N/N5CCN(C6CCCC6)CC5)c(O)c4c3C2=O)NC(=O)/C(C)=C\C=C\[C@H](C)[C@H](O)[C@@H](C)[C@@H](O)[C@@H](C)[C@H](OC(C)=O)[C@@H]1C [Rifapentine]
MIC (E. coli CFT073 (UPEC); [12]): 0.25 µM (≈ 0.219 µg/mL) | MIC (E. coli CFT073 (UPEC); Escherichia coli, E. coli, pH 7.4, 1:4 diluted CA-MHB, read-out: MIC (μM) 1:4 CA-MHB): 5 µM (≈ 4.39 µg/mL) | MIC (E. coli CFT073 (UPEC); [2]): 8 µM (≈ 7.02 µg/mL) | MIC (P. aeruginosa DSM1117; [13]): 80 µM (≈ 70.2 µg/mL) | MIC (S. flexneri 5a M90T): 16 µM (≈ 14 µg/mL) | MIC (S. aureus DSM2569; [3]): 0.0125 µM (≈ 0.011 µg/mL)

CCCCCCCCN=c1ccn(CCCCCCCCCCn2ccc(=NCCCCCCCC)cc2)cc1 [Octenidine]
MIC (E. coli CFT073 (UPEC); [12]): 0.5 µM (≈ 0.275 µg/mL) | MIC (E. coli CFT073 (UPEC); [2]): 1 µM (≈ 0.551 µg/mL) | MIC (P. aeruginosa DSM1117; [13]): 4 µM (≈ 2.2 µg/mL) | MIC (S. aureus DSM2569; [3]): 1 µM (≈ 0.551 µg/mL) | Regrowth, OD600 at 6h or 8h after dilution into drug-free medium ([1]; concentration 0.1): 0.666 | Regrowth, OD600 at 6h or 8h after dilution into drug-free medium ([1]; concentration 0.5): 0.602 | Regrowth, OD600 at 6h or 8h after dilution into drug-free medium ([1]; concentration 2.5): 0.656 | Regrowth, OD600 at 6h or 8h after dilution into drug-free medium (average) ([1]; drug concentration 10): 0.533 | EC50 ([1]; Pseudomonas aeruginosa, DSM1117, regrowth delay of non-growing bacteria, 1:4 CA-MHB pH 7.4, 24 h treatment, OD600 8 h after dilution, read-out: EC50): 9.99 µM

CS[C@H]1SC[C@H]2C(=O)N(C)[C@@H](C(C)C)C(=O)OC[C@@H](NC(=O)c3cnc4ccccc4n3)C(=O)N[C@@H](C)C(=O)N(C)[C@@H]1C(=O)N(C)[C@@H](C(C)C)C(=O)OC[C@@H](NC(=O)c1cnc3ccccc3n1)C(=O)N[C@@H](C)C(=O)N2C [Echinomycin]
MIC (μM) CA-MHB +PAβN (E. coli CFT073 (UPEC); E. coli, pH 7.4): 40 µM (≈ 44.1 µg/mL) | MIC (E. coli CFT073 (UPEC); Escherichia coli, pH 5.5): 4 µM (≈ 4.41 µg/mL) | MIC (E. coli CFT073 (UPEC); [8]): 40 µM (≈ 44.1 µg/mL) | MIC (E. coli CFT073 (UPEC); [9]): 20 µM (≈ 22 µg/mL) | MIC (P. aeruginosa DSM1117; [10]): > 80 µM | MIC (S. flexneri 5a M90T): 4 µM (≈ 4.41 µg/mL) | MIC (S. aureus DSM2569; [11]): 2 µM (≈ 2.2 µg/mL)
